This note sets out measurements from PubChem BioAssay AID256 (DTP/NCI, 2004).

Where “and” joins values, the source holds several entries; their conditions need not be identical. Identical values can stand only once. Toxic doses and inconclusive results are not listed.

In this test the test system is CD2F1 mice, L1210 leukemia ip, survival T/C. Put plainly: NCI In Vivo Anticancer Drug Screen. Data for tumor model L1210 Leukemia (intraperitoneal) in CD2F1 (CDF1) mice. As to conditions: endpoint: mean survival time, higher = longer survival. The essentials:
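Implant tumor; dose compound or vehicle; measure endpoint in both groups; report treated divided by control.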

Where [1] appears, read: dose: 25.0 mg/kg/injection, schedule: Q04DX003 (ip), vehicle: saline with Tween-80.
The mark [2] stands for this setting: dose: 100.0 mg/kg/injection, schedule: Q04DX003 (ip), vehicle: saline with Tween-80.
Setting [3] is: dose: 200.0 mg/kg/injection, schedule: Q04DX003 (ip), vehicle: saline with Tween-80.
Where [4] appears, read: dose: 400.0 mg/kg/injection, schedule: Q04DX003 (ip), vehicle: saline with Tween-80.
[5] abbreviates: dose: 100.0 mg/kg/injection, schedule: Q01DX001 (ip), vehicle: saline.
Setting [6] is: dose: 100.0 mg/kg/injection, schedule: Q04DX003 (ip), vehicle: saline.
Setting [7] is: dose: 200.0 mg/kg/injection, schedule: Q01DX001 (ip), vehicle: saline.
The mark [8] stands for this setting: dose: 200.0 mg/kg/injection, schedule: Q04DX003 (ip), vehicle: saline.
Setting [9] is: dose: 400.0 mg/kg/injection, schedule: Q04DX003 (ip), vehicle: saline.
The mark [10] stands for this setting: dose: 25.0 mg/kg/injection, schedule: Q04DX002 (ip), vehicle: saline.
Where [11] appears, read: dose: 100.0 mg/kg/injection, schedule: Q01DX009 (ip), vehicle: saline.
Setting [12] is: dose: 200.0 mg/kg/injection, schedule: Q01DX009 (ip), vehicle: saline.
Setting [13] is: dose: 400.0 mg/kg/injection, schedule: Q01DX009 (ip), vehicle: saline.
Setting [14] is: dose: 50.0 mg/kg/injection, schedule: Q01DX009 (ip), vehicle: saline with Tween-80.
The mark [15] stands for this setting: dose: 100.0 mg/kg/injection, schedule: Q01DX009 (ip), vehicle: saline with Tween-80.
[16] abbreviates: dose: 200.0 mg/kg/injection, schedule: Q01DX009 (ip), vehicle: saline with Tween-80.
The mark [17] stands for this setting: dose: 400.0 mg/kg/injection, schedule: Q01DX009 (ip), vehicle: saline with Tween-80.
The mark [18] stands for this setting: dose: 100.0 mg/kg/injection, schedule: Q01DX001 (ip), vehicle: saline with Tween-80.
Setting [19] is: dose: 25.0 mg/kg/injection, schedule: Q04DX002 (ip), vehicle: saline with Tween-80.
[20] abbreviates: dose: 50.0 mg/kg/injection, schedule: Q04DX002 (ip), vehicle: saline with Tween-80.

With `COc1cc2c(cc1OC)C[N+]1(C)CCc3cc(OC)c(OC)cc3C1C2` (centres undefined), the T/C reads like this: (dose: 5.0 mg/kg/injection, schedule: Q01DX001 (ip), vehicle: saline) 97 % of control; (dose: 10.0 mg/kg/injection, schedule: Q01DX001 (ip), vehicle: saline) 93 % of control; (dose: 20.0 mg/kg/injection, schedule: Q01DX001 (ip), vehicle: saline) 103 % of control; (dose: 40.0 mg/kg/injection, schedule: Q01DX001 (ip), vehicle: saline) 97 % of control.

In the case of `CC([NH-])C([NH-])O.[Br][Pt+2][Br]` (centres undefined), the T/C under setting [1] is 169 % of control.

For `Nc1nc(N)c(N=Nc2cccc(S(=O)(=O)O)c2)c(N)n1`, the T/C runs as follows: under setting [2], 107 % of control; under setting [3], 101 % of control; under setting [4], 101 % of control.

In the case of `Cc1cc(C)c(S(=O)(=O)c2ccc(F)cc2)c(C)c1`, the T/C under setting [5] is 100 % of control; the T/C under setting [6] is 101 % of control; the T/C under setting [7] is 102 % of control; the T/C under setting [8] was 102 % of control; the T/C (dose: 400.0 mg/kg/injection, schedule: Q01DX001 (ip), vehicle: saline) was 100 % of control; the T/C under setting [9] is 96 % of control.

Turning to `CC1(C)SC2C(NC(=O)Cc3ccccc3)C(=O)N2C1C(=O)O` (centres undefined), the T/C (dose: 25.0 mg/kg/injection, schedule: Q01DX001 (ip), vehicle: saline) was 97 % of control; the T/C under setting [10] is 97 % of control; the T/C (dose: 50.0 mg/kg/injection, schedule: Q01DX001 (ip), vehicle: saline) is 100 % of control; the T/C (dose: 50.0 mg/kg/injection, schedule: Q04DX002 (ip), vehicle: saline) is 100 % of control; the T/C under setting [5] was 100 % of control and 102 % of control; the T/C (dose: 100.0 mg/kg/injection, schedule: Q04DX002 (ip), vehicle: saline) is 97 % of control and 100 % of control. The T/C by setting is: (dose: 200.0 mg/kg/injection, schedule: Q01DX001 (ip), vehicle: carboxymethylcellulose (CMC)) 104 % of control; under setting [7], 97 % of control and 100 % of control; (dose: 200.0 mg/kg/injection, schedule: Q04DX002 (ip), vehicle: saline) 102 % of control and 104 % of control; (dose: 400.0 mg/kg/injection, schedule: Q01DX001 (ip), vehicle: carboxymethylcellulose (CMC)) 100 % of control.

In the case of `O=C(O)C(=Cc1ccnc2ccccc12)C(=O)O`, the T/C under setting [11] was 100 % of control; the T/C under setting [2] was 111 % of control; the T/C under setting [12] is 94 % of control; the T/C under setting [3] is 100 % of control; the T/C under setting [13] was 111 % of control; the T/C under setting [4] was 98 % of control.

On to `O=C(/C=C/c1ccccc1)N1CC2CCC(CC2)C1`, for which the T/C under setting [14] was 94 % of control, the T/C under setting [15] is 94 % of control and the T/C under setting [16] was 91 % of control.

Turning to `CCOC(=O)C(C)C(O)(c1ccccc1)c1ccccc1` (centres undefined), the T/C is, setting by setting: (dose: 100.0 mg/kg/injection, schedule: Q04DX003 (ip), vehicle: Klucel (hydroxypropylcellulose) (HPC)) 95 % of control; (dose: 200.0 mg/kg/injection, schedule: Q04DX003 (ip), vehicle: Klucel (hydroxypropylcellulose) (HPC)) 101 % of control; (dose: 400.0 mg/kg/injection, schedule: Q04DX003 (ip), vehicle: Klucel (hydroxypropylcellulose) (HPC)) 95 % of control.

In the case of `NC(=O)CCC(N)C(=O)O.[Cl-].[Cl-].[Cl-].[Cl-].[Pt+2]` (centres undefined), the T/C reads like this: (dose: 12.5 mg/kg/injection, schedule: Q01DX009 (ip), vehicle: water) 107 % of control; (dose: 25.0 mg/kg/injection, schedule: Q01DX009 (ip), vehicle: water) 100 % of control; (dose: 25.0 mg/kg/injection, schedule: Q04DX003 (ip), vehicle: saline) 111 % of control; (dose: 50.0 mg/kg/injection, schedule: Q04DX003 (ip), vehicle: saline) 119 % of control.

As to `c1ccc(N/N=C2/CSCc3ccccc32)cc1`, the T/C (dose: 100.0 mg/kg/injection, schedule: Q01DX009 (ip), vehicle: Klucel (hydroxypropylcellulose) (HPC)) was 98 % of control; the T/C (dose: 200.0 mg/kg/injection, schedule: Q01DX009 (ip), vehicle: Klucel (hydroxypropylcellulose) (HPC)) was 93 % of control; the T/C (dose: 400.0 mg/kg/injection, schedule: Q01DX009 (ip), vehicle: Klucel (hydroxypropylcellulose) (HPC)) is 93 % of control.

`CC1C(=O)OC(C)(C)C1(C)C` (centres undefined): the T/C was 98 % of control (dose: 25.0 mg/kg/injection, schedule: Q01DX009 (ip), vehicle: saline with Tween-80); 98 % of control under setting [14]; 104 % of control under setting [2].

For `CC(=O)CC(C)(C)O`, the T/C runs as follows: under setting [15], 95 % of control; (dose: 100.0 mg/kg/injection, schedule: Q04DX003 (ip), vehicle: saline sonified) 102 % of control; under setting [16], 96 % of control; (dose: 200.0 mg/kg/injection, schedule: Q04DX003 (ip), vehicle: saline sonified) 100 % of control; under setting [17], 95 % of control; (dose: 400.0 mg/kg/injection, schedule: Q04DX003 (ip), vehicle: saline sonified) 97 % of control.

For `CS(=O)(=O)OCCCN(CCCOS(C)(=O)=O)c1ccc(C=Nc2ccc(-c3csc(COc4ccc(Br)cc4)n3)cc2)cc1`, the T/C by setting is: under setting [18], 94 % of control; (dose: 200.0 mg/kg/injection, schedule: Q01DX001 (ip), vehicle: saline with Tween-80) 89 % of control; (dose: 400.0 mg/kg/injection, schedule: Q01DX001 (ip), vehicle: saline with Tween-80) 88 % of control.

For the molecule `O=P(O)(CCCCl)c1ccccc1`, the T/C is 95 % of control under setting [19]; 91 % of control under setting [20]; 98 % of control (dose: 100.0 mg/kg/injection, schedule: Q04DX002 (ip), vehicle: saline with Tween-80); 91 % of control (dose: 200.0 mg/kg/injection, schedule: Q04DX002 (ip), vehicle: saline with Tween-80).

As to `O=C(O)c1cc(-c2ccc(-c3ccc(-c4cc(C(=O)O)c5cc(Cl)ccc5n4)cc3)cc2)nc2ccc(Cl)cc12`, the T/C runs as follows: under setting [15], 91 % of control; under setting [16], 91 % of control; under setting [17], 100 % of control.

Regarding `CS(=O)(=O)/C=C(\I)c1ccccc1`, the T/C was 98 % of control under setting [11]; 104 % of control under setting [6]; 93 % of control under setting [12]; 106 % of control under setting [8]; 95 % of control under setting [13]; 98 % of control under setting [9].

On to `CC(C)CC(C)OP(=S)(S)OC(C)CC(C)C.[Cd]` (centres undefined), for which the T/C is 93 % of control (dose: 6.25 mg/kg/injection, schedule: Q04DX002 (ip), vehicle: saline); 104 % of control (dose: 12.5 mg/kg/injection, schedule: Q04DX002 (ip), vehicle: saline); 100 % of control under setting [19]; 93 % of control under setting [10]; 88 % of control under setting [20].

For the molecule `OC(c1ccccc1)(c1ccc(-c2ccccc2)cc1)C(O)(c1ccccc1)c1ccc(-c2ccccc2)cc1` (centres undefined), the T/C is 96 % of control under setting [1]; 90 % of control (dose: 50.0 mg/kg/injection, schedule: Q04DX003 (ip), vehicle: saline with Tween-80); 90 % of control and 100 % of control under setting [2]; 92 % of control under setting [3]; 92 % of control under setting [4].

`CCN(CC)CCSC(=O)C(O)(c1ccccc1)c1cccc(C)c1` (centres undefined): the T/C (dose: 75.0 mg/kg/injection, schedule: Q01DX001 (ip), vehicle: saline) is 105 % of control.

`O=C(/C=C/C(=O)c1ccccc1)c1ccccc1`: the T/C was 92 % of control (dose: 6.25 mg/kg/injection, schedule: Q01DX001 (ip), vehicle: saline with Tween-80); 107 % of control (dose: 12.5 mg/kg/injection, schedule: Q01DX001 (ip), vehicle: saline with Tween-80); 96 % of control (dose: 25.0 mg/kg/injection, schedule: Q01DX001 (ip), vehicle: saline with Tween-80); 89 % of control (dose: 50.0 mg/kg/injection, schedule: Q01DX001 (ip), vehicle: saline with Tween-80); 94 % of control under setting [18].
